Data taken from ChEMBL document CHEMBL4017451, “Discovery of a series of 1,3,4-oxadiazole-2(3H)-thione derivatives containing piperazine skeleton as potential FAK inhibitors” (Bioorg Med Chem, 2017).

Tests used:
BGC-823 = assay: cells; conditions: Homo sapiens, BGC-823, 48 h
Description: Antiproliferative activity against human BGC823 cells after 48 hrs by MTT assay

HepG2 = assay: cells; conditions: Homo sapiens, HepG2, 48 h
HeLa = assay: cells; conditions: Homo sapiens, 48 h
SW 1116 = assay: Antiproliferative activity against human SW1116 cells after 48 hrs by MTT assay; conditions: SW 1116, 48 h

Compound	IC50 (BGC-823) [µM]	IC50 (HepG2) [µM]	IC50 (HeLa) [µM]	IC50 (SW 1116) [µM]
S=c1oc(-c2ccc3c(c2)OCCO3)nn1CN1CCN(c2cccc(Cl)c2)CC1	> 50	> 50	47.2	> 50
Cc1ccc(N2CCN(Cn3nc(-c4ccc5c(c4)OCCO5)oc3=S)CC2)c(C)c1	28.3	28.4	> 50	> 50
FC(F)(F)c1cccc(N2CCN(Cn3nc(-c4ccc5c(c4)OCCO5)oc3=S)CC2)c1	> 50	5.78	> 50	47.1
S=c1oc(-c2ccc3c(c2)OCCO3)nn1CN1CCN(C(c2ccccc2)c2ccccc2)CC1	> 50	9.12	> 50	21.6
S=c1oc(-c2ccc3c(c2)OCCO3)nn1CN1CCN(c2ccccn2)CC1	25.9	11.3	25.1	9.49
S=c1oc(-c2ccc3c(c2)OCCO3)nn1CN1CCN(c2ccc(Cl)cc2)CC1	> 50	> 50	> 50	> 50
COc1cccc(N2CCN(Cn3nc(-c4ccc5c(c4)OCCO5)oc3=S)CC2)c1	> 50	21.4	18	> 50
Fc1ccccc1N1CCN(Cn2nc(-c3ccc4c(c3)OCCO4)oc2=S)CC1	> 50	> 50	37.3	37.8
S=c1oc(-c2ccc3c(c2)OCCO3)nn1CN1CCN(Cc2ccccc2)CC1	28.7	18	27.1	> 50
S=c1oc(-c2ccc3c(c2)OCCO3)nn1CN1CCN(c2ccccc2)CC1	> 50	> 50	> 50	> 50
S=c1oc(-c2ccc3c(c2)OCCO3)nn1CN1CCN(c2cccc(Cl)c2Cl)CC1	22.6	> 50	> 50	37.1
COc1ccc(N2CCN(Cn3nc(-c4ccc5c(c4)OCCO5)oc3=S)CC2)cc1	18.9	> 50	> 50	24.2
O=[N+]([O-])c1ccc(N2CCN(Cn3nc(-c4ccc5c(c4)OCCO5)oc3=S)CC2)cc1	> 50	29.5	31.7	> 50
S=c1oc(-c2ccc3c(c2)OCCO3)nn1CN1CCN(c2ccc(Cl)c(Cl)c2)CC1	> 50	23.8	> 50	33.4
COc1ccccc1N1CCN(Cn2nc(-c3ccc4c(c3)OCCO4)oc2=S)CC1	19.5	15.5	> 50	16.9
S=c1oc(-c2ccc3c(c2)OCCO3)nn1CN1CCN(c2ccccc2Cl)CC1	> 50	11.4	37.4	> 50
Fc1ccc(N2CCN(Cn3nc(-c4ccc5c(c4)OCCO5)oc3=S)CC2)cc1	> 50	> 50	> 50	> 50
O=c1[nH]cc(F)c(=O)[nH]1 [FLUOROURACIL]	17.4	13.3	9.02	18.5
